# What was measured:
# 5-LO [1] = molecular target: T1, 5-LO (Homo sapiens, UniProt P09917); test: test a) in vitro assay, heparinised human blood challenged with calcium ionophore A23187, LTB4 radioimmunoassay; format: cell-based
# T1 construct: incubating a test compound with heparinised human blood, prior to challenge with the calcium ionophore A23187; from tissue; host or cells: heparinised human blood (endogenous enzyme of the blood cells)
# T1 sequence (P09917 1-674): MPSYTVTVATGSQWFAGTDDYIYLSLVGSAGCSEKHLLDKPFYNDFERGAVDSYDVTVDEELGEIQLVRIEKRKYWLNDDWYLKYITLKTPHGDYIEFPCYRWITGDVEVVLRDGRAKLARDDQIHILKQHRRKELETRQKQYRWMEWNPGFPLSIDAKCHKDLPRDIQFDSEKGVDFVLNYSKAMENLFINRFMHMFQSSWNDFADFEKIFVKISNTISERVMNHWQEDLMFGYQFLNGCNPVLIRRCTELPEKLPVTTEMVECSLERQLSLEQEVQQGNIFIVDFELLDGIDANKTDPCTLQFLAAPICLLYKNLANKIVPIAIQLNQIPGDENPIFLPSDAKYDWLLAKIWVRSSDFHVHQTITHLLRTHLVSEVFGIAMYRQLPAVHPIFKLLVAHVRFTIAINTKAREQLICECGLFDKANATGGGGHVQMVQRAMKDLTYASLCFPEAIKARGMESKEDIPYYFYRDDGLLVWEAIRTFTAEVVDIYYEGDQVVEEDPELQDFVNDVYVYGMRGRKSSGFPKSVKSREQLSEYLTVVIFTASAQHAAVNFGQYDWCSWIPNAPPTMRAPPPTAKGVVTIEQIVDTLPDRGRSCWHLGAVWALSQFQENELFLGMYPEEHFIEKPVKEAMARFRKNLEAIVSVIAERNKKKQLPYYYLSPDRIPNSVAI
# Protocol: a) An in vitro assay system involving incubating a test compound with heparinised human blood, prior to challenge with the calcium ionophore A23187 and then indirectly measuring the inhibitory effects on 5-LO by assaying the amount of LTB4 using specific radioimmunoassays described by Carey and Forder (Prostaglandins, Leukotrienes Med., 1986, 22, 57; Prostaglandins, 1984, 28, 666; Brit. J. Pharmacol., 1985, 84, 34P) which involves the use of a protein-LTB4 conjugate produced using the procedure of Young et alia (Prostaglandins, 1983, 26(4), 605-613). The effects of a test compound on the enzyme cyclooxygenase (which is involved in the alternative metabolic pathway for arachidonic acid and gives rise to prostaglandins, thromboxanes and related metabolites) may be measured at the same time using the specific radioimmunoassay for thromboxane B2 (TxB2) described by Carey and Forder (see above). This test provides an indication of the effects of a test compound against 5-LO and also cyclooxygenase in the presence of blood cells and proteins. It permits the selectivity of the inhibitory effect on 5-LO or cyclooxygenase to be assessed.
# 5-LO [2] = molecular target: T2, 5-LO (Rattus norvegicus, UniProt P12527); test: test c) in vivo zymosan-induced liberation of LTB4 in rat air pouch; design: species or system male rats; conditions: 3 h; test c), oral
# T2 construct: within an air pouch generated within the subcutaneous tissue of the back of male rats; from tissue; host or cells: living male rats, cells of the zymosan-inflamed subcutaneous air pouch
# T2 sequence (P12527 1-673): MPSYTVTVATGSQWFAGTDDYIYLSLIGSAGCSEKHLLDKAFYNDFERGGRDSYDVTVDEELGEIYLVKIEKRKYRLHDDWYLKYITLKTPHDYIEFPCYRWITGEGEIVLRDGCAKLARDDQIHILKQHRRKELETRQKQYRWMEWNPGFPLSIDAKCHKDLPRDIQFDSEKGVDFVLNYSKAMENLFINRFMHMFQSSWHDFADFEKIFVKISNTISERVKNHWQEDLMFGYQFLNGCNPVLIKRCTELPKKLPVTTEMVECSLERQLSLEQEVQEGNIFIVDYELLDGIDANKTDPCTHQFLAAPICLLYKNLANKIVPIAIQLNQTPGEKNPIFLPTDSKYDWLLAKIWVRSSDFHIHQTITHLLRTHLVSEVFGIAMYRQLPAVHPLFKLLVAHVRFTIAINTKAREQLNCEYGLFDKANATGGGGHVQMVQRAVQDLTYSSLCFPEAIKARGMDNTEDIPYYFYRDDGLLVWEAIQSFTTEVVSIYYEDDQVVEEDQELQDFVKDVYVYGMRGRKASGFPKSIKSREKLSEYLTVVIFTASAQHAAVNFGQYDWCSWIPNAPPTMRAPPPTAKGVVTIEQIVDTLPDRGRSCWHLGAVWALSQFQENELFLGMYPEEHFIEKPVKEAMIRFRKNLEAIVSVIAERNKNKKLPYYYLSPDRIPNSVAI
# Protocol: c) An in vivo system involving measuring the effects of a test compound administered orally against the liberation of LTB4 induced by zymosan within an air pouch generated within the subcutaneous tissue of the back of male rats. The rats are anaesthetised and air pouches are formed by the injection of sterile air (20 ml). A further injection of air (10 ml) is similarly given after 3 days. At 6 days after the initial air injection the test compound is administered (usually orally as the suspension produced when a solution of the test compound in dimethylsulphoxide is added to hydroxypropylmethylcellulose), followed by the intrapouch injection of zymosan (1 ml of a 1% suspension in physiological saline). After 3 hours the rats are killed, the air pouches are lavaged with physiological saline, and the specific radioimmunoassay described above is used to assay LTB4 in the washings. This test provides an indication of inhibitory effects against 5-LO in an inflammatory milieu.
SMILES,IC50 (5-LO [1]) [nM],ED50 (5-LO [2]) [mg/kg]
"COC1(c2cc(F)cc(Sc3ccc(/C(C)=N/OCC#N)cc3)c2)CCOCC1 [Example 5, (E)-4'-[5-fluoro-3-(4-methoxytetrahydropyran-4-yl)phenylthio]acetophenone oxime O-cyanomethyl ether]",30,~0.5
"CO/N=C(\C)c1ccc(Sc2cc(F)cc(C3(OC)CCOCC3)c2)cc1 [Example 2, (E)-4'-[5-fluoro-3-(4-methoxytetrahydropyran-4-yl)phenylthio]acetophenone oxime O-methyl ether]",110,~0.5
"CO[C@]1(c2cc(F)cc(Sc3ccc(/C(C)=N/O)cc3)c2)CCO[C@@H](C)C1 [Example 26, (E)-4'-{5-fluoro-3-[(2S,4R)-4-methoxy-2-methyltetrahydropyran-4-yl]phenylthio}acetophenone oxime]",40,~0.05
